Article PMC5653818, “A Brain Penetrant Mutant IDH1 Inhibitor Provides In Vivo Survival Benefit” (Scientific Reports, 2017)

Target: IDH1 R132H (mutant isocitrate dehydrogenase 1) (Homo sapiens, UniProt O75874, R132H)
Test: coupled enzymatic assay (GAPDH/PGK/luciferase luminescence) with R132H IDH1 enzyme
Type: biochemical

IDH1 R132H (mutant isocitrate dehydrogenase 1), sequence (O75874 2-414 R132H): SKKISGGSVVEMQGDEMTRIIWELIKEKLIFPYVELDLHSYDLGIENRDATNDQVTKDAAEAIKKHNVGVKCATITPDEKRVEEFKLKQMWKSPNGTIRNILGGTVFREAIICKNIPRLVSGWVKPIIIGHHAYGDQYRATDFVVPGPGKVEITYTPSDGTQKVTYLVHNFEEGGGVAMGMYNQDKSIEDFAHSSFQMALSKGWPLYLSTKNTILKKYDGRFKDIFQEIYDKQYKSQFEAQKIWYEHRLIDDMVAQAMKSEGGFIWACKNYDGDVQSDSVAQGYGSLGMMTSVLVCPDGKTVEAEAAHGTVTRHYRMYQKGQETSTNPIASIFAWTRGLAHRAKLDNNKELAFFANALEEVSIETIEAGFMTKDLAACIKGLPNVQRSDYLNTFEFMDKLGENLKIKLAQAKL

IC50: 5 nM
SMILES: O=C(C1CCc2ccccc2CC1)N1Cc2cccnc2Nc2ccc(N3CCOCC3)cc21 [MRK-A]
